Data as given in ChEMBL document CHEMBL1201862, “PubChem BioAssay data set” (2004).
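Growth conditions: 96-well plates. Treatment: test compound, 48 hours, 5 concentrations. Analysis: linear interpolation between bracketing concentrations; unreached endpoints set to highest concentration. GI50 marks 50% less growth.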 Activity calls are given as the source filed them. Cut-off read from the data, not from the text of the source: active = GI50 up to about 1.1 µM and inactive = higher. Square brackets hold non-standard residues; d marks the D form. Peptide text beside a SMILES is read from it. * marks the point of attachment. Boc = CC(C)(C)OC(=O)*; Lac = C[CH](O)C(=O)O; OBn = c1ccc(CO*)cc1

Assays:
Experiment in all cases: NCI tumour cell line growth inhibition, 48 h
HOP-92 = system: HOP-92
MCF7 = system: MCF7
LOX IMVI = system: LOX IMVI
PC-3 = system: PC-3
T47D = system: T47D
SR = system: SR
MDA-MB-231 = system: MDA-MB-231
NCI/ADR-RES = system: NCI/ADR-RES
Malme-3M = system: Malme-3M
ACHN = system: ACHN
DU-145 = system: DU-145
MDA-N = system: MDA-N
NCI-H226 = system: NCI-H226
786-0 = system: 786-0
BT-549 = system: BT-549
MDA-MB-435 = system: MDA-MB-435
Hs-578T = system: Hs-578T
RXF 393 = system: RXF 393
TK-10 = system: TK-10

Row | Compound | GI50 (HOP-92) | GI50 (MCF7) | GI50 (LOX IMVI) | GI50 (PC-3) | GI50 (T47D) | GI50 (SR) | GI50 (MDA-MB-231) | GI50 (NCI/ADR-RES) | GI50 (Malme-3M) | GI50 (ACHN) | GI50 (DU-145) | GI50 (MDA-N) | GI50 (NCI-H226) | GI50 (786-0) | GI50 (BT-549) | GI50 (MDA-MB-435) | GI50 (Hs-578T) | GI50 (RXF 393) | GI50 (TK-10)
1 | CCOc1ccc2c(C)cc(=O)oc2c1 | > 100 µM (inactive) | > 100 µM (inactive) | > 100 µM (inactive) | > 100 µM (inactive) | > 100 µM (inactive) | > 100 µM (inactive) | > 100 µM (inactive) | > 100 µM (inactive) | > 100 µM (inactive) | > 100 µM (inactive) | > 100 µM (inactive) | > 100 µM (inactive) | > 100 µM (inactive) | > 100 µM (inactive) | > 100 µM (inactive) | > 100 µM (inactive) | > 100 µM (inactive) | > 100 µM (inactive) | 
2 | COc1cc2cc(C(=O)N3CC(CCl)c4ccc(NO)cc43)[nH]c2c(OC)c1OC (configuration not stated) | 0.352 µM (active) | 0.0391 µM (active) | 0.164 µM (active) | 0.0914 µM (active) | 0.436 µM (active) | 0.0577 µM (active) | 0.254 µM (active) | 0.0723 µM (active) | 0.164 µM (active) | 0.091 µM (active) | 0.0953 µM (active) | 0.249 µM (active) | 0.244 µM (active) | 0.287 µM (active) | 0.253 µM (active) | 0.216 µM (active) | 0.296 µM (active) | 0.114 µM (active) | 0.313 µM (active)
3 | CC1CC2=C(S(=O)(=O)c3ccccc3)CC(S(=O)(=O)c3ccccc3)(S(=O)(=O)c3ccccc3)CC21 (configuration not stated) |  |  | > 100 µM (inactive) |  |  | > 100 µM (inactive) |  |  |  | > 100 µM (inactive) |  |  | > 100 µM (inactive) |  |  |  |  | > 100 µM (inactive) | > 100 µM (inactive)
4 | O=C1Nc2ccc(Cl)cc2/C1=C\c1c(Cl)nc2sccn12 | > 100 µM (inactive) |  | 7.48 µM (inactive) | 4.93 µM (inactive) | > 100 µM (inactive) | 0.338 µM (active) | 2.56 µM (inactive) | 3.1 µM (inactive) | > 100 µM (inactive) | > 100 µM (inactive) | 73.5 µM (inactive) | 1.91 µM (inactive) |  |  | 7.57 µM (inactive) | 0.787 µM (active) |  | 18.6 µM (inactive) | 8.47 µM (inactive)
5 | COP(=O)(OC)C(N)Cc1c[nH]c2ccccc12 (configuration not stated) |  | > 100 µM (inactive) | > 100 µM (inactive) | > 100 µM (inactive) | > 100 µM (inactive) |  | > 100 µM (inactive) | > 100 µM (inactive) |  | > 100 µM (inactive) | > 100 µM (inactive) | > 100 µM (inactive) | > 100 µM (inactive) |  |  | > 100 µM (inactive) | > 100 µM (inactive) |  | > 100 µM (inactive)
6 | Nc1ccn(C2OC(CO[PH](=O)OC3C(CO[PH](=O)OC4C(CO[PH](=O)OC5C(CO[PH](=O)OC6C(CO[PH](=O)OC7C(CO[PH](=O)OC8C(CO[PH](=O)OC9C(CO[PH](=O)OC%10C(CO[PH](=O)OC%11C(CO)OC(n%12ccc(N)nc%12=O)C%11(F)F)OC(n%11ccc(N)nc%11=O)C%10(F)F)OC(n%10ccc(N)nc%10=O)C9(F)F)OC(n9ccc(N)nc9=O)C8(F)F)OC(n8ccc(N)nc8=O)C7(F)F)OC(n7ccc(N)nc7=O)C6(F)F)OC(n6ccc(N)nc6=O)C5(F)F)OC(n5ccc(N)nc5=O)C4(F)F)OC(n4ccc(N)nc4=O)C3(F)F)C(O)C2(F)F)c(=O)n1 (configuration not stated) | 0.155 µM (active) | 0.0103 µM (active) | 0.0418 µM (active) | 5.5 µM (inactive) | 0.553 µM (active) | 0.0183 µM (active) | 1.4 µM (inactive) | 0.051 µM (active) | 0.391 µM (active) | 0.00533 µM (active) | 0.0109 µM (active) | 0.0442 µM (active) | 9.44 µM (inactive) |  | 0.0661 µM (active) | 0.0526 µM (active) | 2.22 µM (inactive) |  | 3.03 µM (inactive)
7 | COc1ccccc1N1C(=O)/C(=C\c2cc(OC)c(OC)c(OC)c2)SC1c1ccccc1 (configuration not stated) | 22.7 µM (inactive) | 18.2 µM (inactive) | 26.9 µM (inactive) |  | 36.6 µM (inactive) | 13.3 µM (inactive) | 44.8 µM (inactive) | 43 µM (inactive) | 20.3 µM (inactive) | 44.4 µM (inactive) | > 100 µM (inactive) | 15.2 µM (inactive) | 28.9 µM (inactive) | 97.5 µM (inactive) | 84.9 µM (inactive) | 14.9 µM (inactive) | 24 µM (inactive) | 14.5 µM (inactive) | 53.3 µM (inactive)
8 | CC(OC(=O)C(Cc1ccccc1)NC(=O)C(Cc1ccccc1)NC(=O)OC(C)(C)C)C(=O)OCc1ccccc1 (stereo not drawn) (Boc-Phe-Phe-[Lac]-OBn; configuration not given here) | > 100 µM (inactive) | 17.8 µM (inactive) |  | > 100 µM (inactive) | > 100 µM (inactive) | > 100 µM (inactive) | > 100 µM (inactive) | > 100 µM (inactive) | > 100 µM (inactive) |  | > 100 µM (inactive) | > 100 µM (inactive) | > 100 µM (inactive) |  | > 100 µM (inactive) | > 100 µM (inactive) | > 100 µM (inactive) | > 100 µM (inactive) | 
9 | CC/C=C\C/C=C\C/C=C\CCCCCCCC(=O)OC [METHYL LINOLENATE] | > 100 µM (inactive) | > 100 µM (inactive) | 18.9 µM (inactive) |  |  |  |  | > 100 µM (inactive) | > 100 µM (inactive) |  |  |  | > 100 µM (inactive) |  |  |  |  |  | 
